Converted amounts (≈) assume the structure as drawn.
Tests used:
[1] = tested on: Klebsiella pneumoniae ATCC; assay: Planktonic susceptibility (MIC/MBC), 96-well broth microdilution; type: cell-based; conditions: K. pneumonia; for MIC: planktonic, overnight 37°C in MHB
Experimental: (§1) All bacterial strains subjected to testing had been stored at −70°C prior to the experiment. The experiment commenced by streaking small amounts of the frozen bacterial samples onto Muller-Hinton agar (MHA) culture medium (BD Bacto, Oxoid, Basingstoke, UK Cat# X296B) and allowing for overnight incubation. Bacteria were re-cultured on MHA plates as required to confirm colony morphology and lack of contamination. Strains tested were P. aeruginosa ATCC 27853, E. coli ATCC 25922, Staphylococcus aureus ATCC 25923, MRSA ATCC 33591, S. epidermidis ATCC 12228, Klebsiella pneumoniae ATCC, P. mirabilis ATCC 35659, and 10 clinical isolates of MRSA from Foothills Hospital, Calgary, Canada. To prepare for susceptibility testing, a protocol modified from Lemire et al was used ([28]). MHB was swab-inoculated from MHA colonies and shake-incubated until turbid. Dilution of the broth with 0.9% saline was performed as necessary to match a 1.0 McFarland standard.
(§2) MIC and MBC assessments were conducted on all bacterial strains using 96-well microtiter plates. To prepare the wells for bacteria, serial dilutions of the antibacterial agents were carried out along the rows of two microtiter plates. The antibacterials were 2-fold diluted with Mueller-Hinton broth (MHB) in each column, reaching a volume of 75 µL. The 1.0 McFarland standard was diluted 15-fold in MHB, and 75 µL of inoculum was added to the wells treated with antibacterials, resulting in a total volume of 150 µL. The microtiter plates were covered and then shake-incubated overnight at 150 rpm and 37°C. MIC was determined based on visible bacterial growth. In cases of antibacterial opacity or ambiguous results, streaking of well cultures on MHA, overnight incubation, and subsequent comparison with controls were performed. MBC was determined by transferring 3 µL of culture from all MIC microtiter plate wells to 147 µL of Mueller-Hinton broth in fresh plates. These plates were shake-incubated overnight at 150 rpm and 37°C, and bacterial growth was visually inspected.

[2] = tested on: P. mirabilis ATCC 35659; assay: as above; type: cell-based; conditions: Proteus mirabilis; for MBC: ATCC35659; for MIC: ATCC35659, planktonic, overnight 37°C in MHB
Experimental: as §1, §2

[3] = tested on: Staphylococcus aureus ATCC 25923; assay: as above; type: cell-based; conditions: S. aureus; for MBC / MIC: Staphylococcus aureus, ATCC25923; for MIC: planktonic, overnight 37°C in MHB
Experimental: as §1, §2

[4] = tested on: MRSA ATCC 33591; assay: as above; type: cell-based, methicillin-resistant S. aureus; conditions: for antibacterial efficacy (in words): MRSA spp.; for MBC / MIC: Staphylococcus aureus, MRSA reference strain; for MIC: planktonic, overnight 37°C in MHB
Experimental: as §1
as §2, with “In cases of antibacterial opacity or ambiguous results, streaking of well cultures on MHA, overnight incubation, and subsequent comparison with controls were performed.” left out

[5] = tested on: S. epidermidis ATCC 12228; assay: as above; type: cell-based, Staphylococcus epidermidis; conditions: for MBC / MIC: Staphylococcus epidermidis; for MBC: ATCC12228; for MIC: ATCC12228, planktonic, overnight 37°C in MHB
Experimental: as §1, §2

[6] = tested on: 10 clinical isolates of MRSA from Foothills Hospital, Calgary; assay: Planktonic susceptibility (MIC/MBC) of MRSA clinical isolates; type: cell-based, methicillin-resistant S. aureus; conditions: Staphylococcus aureus
Experimental: as §1
as §2, with “In cases of antibacterial opacity or ambiguous results, streaking of well cultures on MHA, overnight incubation, and subsequent comparison with controls were performed.” left out

[7] = tested on: MT4 cells; assay: Eukaryotic cell toxicity; type: cell-based, Human; conditions: 4 days
Experimental: (§3) Five eukaryotic cell lines were used to determine the cytotoxicity of the compounds: human embryonic lung (HEL) fibroblast cells, human cervixcarinoma-derived HeLa cells, human T-cell leukemia-derived MT4 cells, MDCK cells, and African Green monkey kidney-derived VERO cells. Semi-confluent cell cultures in 96-well plates were exposed to serial dilutions of the compounds or to medium (= no compound control), then incubated at 37°C. Four days later, the cells were inspected by microscopy to determine the MCC, that is, compound concentration that causes a microscopically detectable alteration of normal cell morphology. Next, the MTS cell viability reagent (CellTiter 96 AQueous MTS Reagent from Promega) was added. After 4 hours of incubation at 37°C, OD at 490 nm was recorded in a microplate reader.

[8] = Eukaryotic cell toxicity, MTS assay (CC50); type: cell-based; conditions: African green monkey, Vero cells, mean of 2 or 3 determinations, read-out: Vero (CC50) in vitro cytotoxicity
Experimental: as §3

| Structure (SMILES) | MBC [1] [µM] | MIC [1] [µM] | MBC [2] [µM] | MIC [2] [µM] | antibacterial efficacy (in words) [3] | MBC [3] [µM] | MIC [3] [µM] | antibacterial efficacy (in words) [4] | MBC [4] [µM] | MIC [4] [µM] | antibacterial efficacy (in words) [5] | MBC [5] [µM] | MIC [5] [µM] | MBC ([6]; MRSA #1 clinical isolate) [µM] | MIC ([6]; MRSA #1 clinical isolate) [µM] | MBC ([6]; MRSA #2 clinical isolate) [µM] | MIC ([6]; MRSA #2 clinical isolate) [µM] | MBC ([6]; MRSA #3 clinical isolate) [µM] | MIC ([6]; MRSA #3 clinical isolate) [µM] | MBC ([6]; MRSA #4 clinical isolate) [µM] | also measured |
| --- | --- | --- | --- | --- | --- | --- | --- | --- | --- | --- | --- | --- | --- | --- | --- | --- | --- | --- | --- | --- | --- |
| O=C(Nc1ccc(S(F)(F)(F)(F)F)cc1)Nc1ccc(Cl)c(Cl)c1 [EBP-59] | > 5000 | > 5000 | 2 (≈ 0.814 µg/mL) | 2 (≈ 0.814 µg/mL) | effective | 6.1 (≈ 2.48 µg/mL) | < 0.3 | effective | 20 (≈ 8.14 µg/mL) | 2.4 (≈ 0.977 µg/mL) | effective | 10 (≈ 4.07 µg/mL) | 4 (≈ 1.63 µg/mL) | 5 (≈ 2.04 µg/mL) | < 2 | < 2 | < 2 | < 2 | < 2 | 5 (≈ 2.04 µg/mL) | MIC ([6]; MRSA #4 clinical isolate): < 2 µM; MBC ([6]; MRSA #5 clinical isolate): 10 µM (≈ 4.07 µg/mL); MIC ([6]; MRSA #5 clinical isolate): < 2 µM; MBC ([6]; MRSA #6 clinical isolate): < 2 µM; MIC ([6]; MRSA #6 clinical isolate): < 2 µM; MBC ([6]; MRSA #7 clinical isolate): < 2 µM; MIC ([6]; MRSA #7 clinical isolate): < 2 µM; MBC ([6]; MRSA #8 clinical isolate): 5 µM (≈ 2.04 µg/mL); MIC ([6]; MRSA #8 clinical isolate): < 2 µM; MBC ([6]; MRSA #9 clinical isolate): 20 µM (≈ 8.14 µg/mL); MIC ([6]; MRSA #9 clinical isolate): < 2 µM; MBC ([6]; MRSA #10 clinical isolate): 40 µM (≈ 16.3 µg/mL); MIC ([6]; MRSA #10 clinical isolate): < 2 µM; MT4 (MCC) in vitro cytotoxicity [7]: 3.9 µM; CC50 at 4 days [8]: > 4 µM |
| O=C(Nc1ccc(Cl)cc1)Nc1cccc(S(F)(F)(F)(F)F)c1 [EBP-62, 1-(4-chlorophenyl)-3-(3-(pentafluoro-λ^6-sulfanyl)phenyl)urea] | > 5000 | > 5000 | > 5000 | > 5000 | effective | 300 (≈ 112 µg/mL) | 0.3 (≈ 0.112 µg/mL) | effective | 76 (≈ 28.3 µg/mL) | 38 (≈ 14.2 µg/mL) | effective | 100 (≈ 37.3 µg/mL) | 20 (≈ 7.45 µg/mL) | 80 (≈ 29.8 µg/mL) | < 2 | 5 (≈ 1.86 µg/mL) | < 2 | < 2 | < 2 | 20 (≈ 7.45 µg/mL) | MIC ([6]; MRSA #4 clinical isolate): < 2 µM; MBC ([6]; MRSA #5 clinical isolate): 20 µM (≈ 7.45 µg/mL); MIC ([6]; MRSA #5 clinical isolate): < 2 µM; MBC ([6]; MRSA #6 clinical isolate): 5 µM (≈ 1.86 µg/mL); MIC ([6]; MRSA #6 clinical isolate): < 2 µM; MBC ([6]; MRSA #7 clinical isolate): 10 µM (≈ 3.73 µg/mL); MIC ([6]; MRSA #7 clinical isolate): 5 µM (≈ 1.86 µg/mL); MBC ([6]; MRSA #8 clinical isolate): 80 µM (≈ 29.8 µg/mL); MIC ([6]; MRSA #8 clinical isolate): 5 µM (≈ 1.86 µg/mL); MBC ([6]; MRSA #9 clinical isolate): 40 µM (≈ 14.9 µg/mL); MIC ([6]; MRSA #9 clinical isolate): < 2 µM; MBC ([6]; MRSA #10 clinical isolate): 80 µM (≈ 29.8 µg/mL); MIC ([6]; MRSA #10 clinical isolate): 5 µM (≈ 1.86 µg/mL); MT4 (MCC) in vitro cytotoxicity [7]: 4.7 µM; CC50 at 4 days [8]: > 4 µM |
| O=C(Nc1ccc(Cl)cc1)Nc1ccc(S(F)(F)(F)(F)F)cc1 [EPB-61, 1-(4-Chlorophenyl)-3-(4-(pentafluoro-λ^6-sulfanyl)phenyl)urea] | > 5000 | > 5000 | > 5000 | > 5000 | effective | 95 (≈ 35.4 µg/mL) | 9.5 (≈ 3.54 µg/mL) | effective | 300 (≈ 112 µg/mL) | 160 (≈ 59.6 µg/mL) | effective | 40 (≈ 14.9 µg/mL) | 1 (≈ 0.373 µg/mL) | 40 (≈ 14.9 µg/mL) | < 2 | 10 (≈ 3.73 µg/mL) | < 2 | 10 (≈ 3.73 µg/mL) | < 2 | 20 (≈ 7.45 µg/mL) | MIC ([6]; MRSA #4 clinical isolate): < 2 µM; MBC ([6]; MRSA #5 clinical isolate): 40 µM (≈ 14.9 µg/mL); MIC ([6]; MRSA #5 clinical isolate): < 2 µM; MBC ([6]; MRSA #6 clinical isolate): 20 µM (≈ 7.45 µg/mL); MIC ([6]; MRSA #6 clinical isolate): < 2 µM; MBC ([6]; MRSA #7 clinical isolate): 20 µM (≈ 7.45 µg/mL); MIC ([6]; MRSA #7 clinical isolate): < 2 µM; MBC ([6]; MRSA #8 clinical isolate): 40 µM (≈ 14.9 µg/mL); MIC ([6]; MRSA #8 clinical isolate): < 2 µM; MBC ([6]; MRSA #9 clinical isolate): 40 µM (≈ 14.9 µg/mL); MIC ([6]; MRSA #9 clinical isolate): < 2 µM; MBC ([6]; MRSA #10 clinical isolate): 20 µM (≈ 7.45 µg/mL); MIC ([6]; MRSA #10 clinical isolate): < 2 µM; MT4 (MCC) in vitro cytotoxicity [7]: 2.8 µM; CC50 at 4 days [8]: > 4 µM |

Reference: article PMC11237694, “Novel pentafluorosulfanyl-containing triclocarban analogs selectively kill Gram-positive bacteria” (Microbiology Spectrum, 2024)
